Target: T1, IKKε (Homo sapiens, UniProt Q14164)
T1 construct: His-tag; made in house; host or cells: Sf9 insect cells
T1 sequence (Q14164 1-716): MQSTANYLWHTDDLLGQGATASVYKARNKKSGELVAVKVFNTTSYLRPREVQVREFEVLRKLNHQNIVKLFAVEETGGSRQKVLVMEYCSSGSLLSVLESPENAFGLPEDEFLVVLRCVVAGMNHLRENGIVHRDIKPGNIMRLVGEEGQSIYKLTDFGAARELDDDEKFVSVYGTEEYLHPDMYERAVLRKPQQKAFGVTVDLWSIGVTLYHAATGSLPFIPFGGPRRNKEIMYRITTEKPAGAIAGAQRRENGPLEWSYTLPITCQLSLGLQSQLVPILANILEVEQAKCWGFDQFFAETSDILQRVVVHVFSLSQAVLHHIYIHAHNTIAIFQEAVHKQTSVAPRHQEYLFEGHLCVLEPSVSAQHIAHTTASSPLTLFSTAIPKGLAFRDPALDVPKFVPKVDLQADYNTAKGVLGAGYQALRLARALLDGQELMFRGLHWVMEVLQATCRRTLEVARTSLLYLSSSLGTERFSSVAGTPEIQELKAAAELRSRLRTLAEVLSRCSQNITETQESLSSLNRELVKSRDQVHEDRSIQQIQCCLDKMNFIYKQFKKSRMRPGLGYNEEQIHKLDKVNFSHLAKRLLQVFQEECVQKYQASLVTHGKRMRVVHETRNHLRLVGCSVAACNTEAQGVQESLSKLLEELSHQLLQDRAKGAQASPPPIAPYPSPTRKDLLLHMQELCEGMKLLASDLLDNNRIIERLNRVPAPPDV
Test: In-vitro IKKε kinase assay ([γ33]ATP filter-plate)
Assay type: biochemical
Settings: text bins; read-out: IC50 for inhibition of the kinase activity of IKKε
Procedure: IKKε enzyme was produced as a His-tag fusion in Sf9 cells and used at a final concentration of […]. TBK1 enzyme was produced as a His-tag fusion in Sf9 cells and used at a final concentration of 0.1 μg/ml. Kinase reactions were carried out in reaction buffer using myelin basic protein (Millipore, Ballerica, Mass.) or casein (Sigma, St. Louis, Mo.) as substrate at an ATP concentration equal to twice the Km,ATP value for each enzyme, corresponding to 32 μM ATP for IKKε and 60 μM ATP for TBK1, in the presence of 0.3 μCi [γ^33]ATP (PerkinElmer, Waltham, Mass.). Final enzyme concentrations were 0.1 or 0.015 μg/ml (IKKε) and 0.1 or 0.02 μg/ml (TBK1), representing “normal” and “sensitized” assay conditions respectively. Test compounds (or DMSO solvent as a control) were added prior to initiation of the reactions. Reactions were terminated after 30-45 minutes by adding 3% phosphoric acid. Terminated reactions were transferred to P-81 cellulose phosphate filterplates (Whatman, Inc., Piscataway, N.J.) and washed with 1% phosphoric acid on a vacuum apparatus. After air drying, scintillant (PerkinElmer, Waltham, Mass.) was added and the plates were read on a PerkinElmer TopCount NXT instrument. Counts were normalized to DMSO controls after background subtraction.

SMILES | IC50 [nM]
N#Cc1cccc(-c2ccnc(Nc3ccc4c(c3)CCC4)n2)c1 [Example 198, 3-[2-(2,3-Dihydro-1H-inden-5-ylamino)pyrimidin-4-yl]benzonitrile] | 50 to 500
N#Cc1cc(-c2ccnc(Nc3ccc(N4CCOCC4)cc3)n2)ccc1NC(=O)c1cccnc1 [Example 204, N-[2-cyano-4-(2-{[4-(morpholin-4-yl)phenyl]amino}pyrimidin-4-yl)phenyl]pyridine-3-carboxamide] | 50 to 500
CN1CCN(C2CCN(c3ccc(-c4ccnc(Nc5ccc(N6CCOCC6)cc5)n4)cc3C#N)CC2)CC1 [Example 213, 2-[4-(4-Methylpiperazin-1-yl)piperidin-1-yl]-5-(2-{[4-(morpholin-4-yl)phenyl]amino}pyrimidin-4-yl)benzonitrile] | 50 to 500
CC(C)N1CCC(Oc2ccc(-c3ccnc(Nc4ccc(N5CCOCC5)cc4)n3)cc2C#N)CC1 [Example 227, 5-(2-{[4-(Morpholin-4-yl)phenyl]amino}pyrimidin-4-yl)-2-{[1-(propan-2-yl)piperidin-4-yl]oxy}benzonitrile] | 50 to 500
N#Cc1cccc(-c2ccnc(Nc3ccc4c(c3)OCCO4)n2)c1 [Example 232, 3-[2-(2,3-Dihydro-1,4-benzodioxin-6-ylamino)pyrimidin-4-yl]benzonitrile] | 50 to 500
N#Cc1cc(-c2ccnc(Nc3ccc(N4CCOCC4)cc3)n2)ccc1OC1CCN(CC(=O)N2CCOCC2)CC1 [Example 234, 2-({1-[2-(morpholin-4-yl)-2-oxoethyl]piperidin-4-yl}oxy)-5-(2-{[4-(morpholin-4-yl)phenyl]amino}pyrimidin-4-yl)benzonitrile] | 50 to 500

Other lines, results leading:

IC50 [nM] | SMILES
5 to 50 | N#Cc1cc(-c2ccnc(Nc3ccc(N4CCOCC4)cc3)n2)ccc1OCC1CN(C(=O)CO)C1 [Example 188, 2-{[1-(hydroxyacetyl)azetidin-3-yl]methoxy}-5-(2-{[4-(morpholin-4-yl)phenyl]amino}pyrimidin-4-yl)benzonitrile]
5 to 50 | C[C@H](O)C(=O)N1CCC(Oc2ccc(-c3ccnc(Nc4ccc(N5CCOCC5)cc4)n3)cc2C#N)C1 (stereo partly drawn) [Example 192, 2-({1-[(2S)-2-hydroxypropanoyl]pyrrolidin-3-yl}oxy)-5-(2-{[4-(morpholin-4-yl)phenyl]amino}pyrimidin-4-yl)benzonitrile]
5 to 50 | CC(=O)N1CCC(Oc2ccc(-c3ccnc(Nc4ccc(N5CCOCC5)cc4)n3)cc2C#N)C1 (centres unmarked) [Example 195, 2-[(1-Acetylpyrrolidin-3-yl)oxy]-5-(2-{[4-(morpholin-4-yl)phenyl]amino}pyrimidin-4-yl)benzonitrile]
5 to 50 | CC(C)(C)C(=O)Nc1ccc(-c2ccnc(Nc3ccc(N4CCOCC4)cc3)n2)cc1C#N [Example 196, N-[2-cyano-4-(2-{[4-(morpholin-4-yl)phenyl]amino}pyrimidin-4-yl)phenyl]-2,2-dimethylpropanamide]
5 to 50 | N#Cc1cc(-c2ccnc(Nc3ccc(N4CCOCC4)cc3)n2)ccc1OCCNC(=O)CO [Example 197, N-{2-[2-cyano-4-(2-{[4-(morpholin-4-yl)phenyl]amino}pyrimidin-4-yl)phenoxy]ethyl}-2-hydroxyacetamide]
5 to 50 | COc1cc(Nc2nccc(-c3ccc(OC4CCN(C(=O)CO)C4)c(C#N)c3)n2)ccc1OCCOCCN (centres unmarked) [Example 199, 5-[2-({4-[2-(2-aminoethoxy)ethoxy]-3-methoxyphenyl}amino)pyrimidin-4-yl]-2-{[1-(hydroxyacetyl)pyrrolidin-3-yl]oxy}benzonitrile]
5 to 50 | N#Cc1cc(-c2ccnc(Nc3ccc(N4CCOCC4)cc3)n2)ccc1NCc1cccnc1 [Example 200, 5-(2-{[4-(Morpholin-4-yl)phenyl]amino}pyrimidin-4-yl)-2-[(pyridin-3-ylmethyl)amino] benzonitrile]
5 to 50 | CC(C)C[C@H](O)C(=O)N1CCC(Oc2ccc(-c3ccnc(Nc4ccc(N5CCOCC5)cc4)n3)cc2C#N)CC1 [Example 229, 2-({1-[(2S)-2-hydroxy-4-methylpentanoyl]piperidin-4-yl}oxy)-5-(2-{[4-(morpholin-4-yl)phenyl]amino}pyrimidin-4-yl)benzonitrile]

— patent publication US20150352108A1, “AMINO-PYRIMIDINE COMPOUNDS AS INHIBITORS OF TBK1 AND/OR IKK EPSILON” (Alzheimer's Institute of America, priority 2009, published 2015)
